Paper PMC11212260, “Next-generation neuropeptide Y receptor small-molecule agonists inhibit mosquito-biting behavior” (Parasites & Vectors, 2024)
Several values for one entry are separate records, joined by “and”; a condition that tells them apart may be missing. Equal entries are not always repeated.

Experiments:
[1] = test system: Aedes aegypti (Orlando strain) females; experiment: Biting assay (mouse-in-cage); type: in vivo; design: key to Difference between medians: Actual (vs. saline) / Difference between medians: Hodges-Lehmann (vs. saline): differences in percent biting (blood-fed/total females, %); settings: for Percentage of females that freshly blood-fed on an anesthetized mouse: fed 1 μM 48 h prior, 15 min exposure, individual replicates; for effect on biting / blood-feeding from a live host (in words): fed at a dose of 1 μM
Description: Groups of 60–150 females were placed in bucket cages with a diameter of 21.6 cm and height of 16.5 cm (VWR) and fasted with access to water for 24 h prior to feeding. Meals were delivered to females via Glytube membrane feeders as described previously. Meals consisted of 1.5 ml sheep blood (HemoStat Laboratories), saline (400 mM NaHCO3 + dih2O), or saline and test compound. Lyophilized compounds were stored at room temperature until use. High-concentration stocks (30 mM in 100% dimethyl sulfoxide [DMSO]) (Sigma-Aldrich) were stored at −20 °C and diluted in saline immediately prior to feeding. Once prepared, meals and glycerol heating elements were warmed in a 42 °C water bath for 15 min to provide warmth to attract mosquitos to feed. […] Females were allowed 15–20 min to feed to repletion. Abdominal engorgement was scored by eye and confirmed by weighing females to ensure full feeding (Data S1). […] Females were returned to their original cage with a diH2O wick for 48 h prior to behavioral testing. The lethality of each compound was measured by counting the number of dead females in each cage 24 h post-meal.
This assay was modified from. Females were fed and scored as described above. Forty-eight hours post-meal, females were anesthetized in a 4 °C cold room and aspirated into a petri dish (Thermo Fisher Biosciences) with a randomly assigned color powder (Slice of the Moon; Chameleon Colors) to mark their treatment group. Females were then individually removed from the color powder, placed inside a cage measuring 91 cm × 61 cm × 61 cm (BugDorm), and allowed 2–4 h to recover. Each experiment consisted of a cage with 12–20 females in each treatment group including environmental (non-fed and blood-fed) and vehicle (saline-fed) control groups. The experiment began once an anesthetized mouse was introduced to the center of the cage, and females were allowed 15 min to blood-feed. The mouse was then removed, and the cage was placed at 4 °C to anesthetize females for collection. Females were aspirated into a large glass petri dish (Pyrex) and scored under a dissection microscope (Nikon SMZ1500) for powder color and blood-feeding status. Females were scored as blood-fed if fresh blood was present in the abdomen. Percent biting was calculated as females freshly blood-fed/total females in each respective treatment group.

Ae. aegypti NPYLR7 = Ae. aegypti NPYLR7 (Aedes aegypti, UniProt U5N1H5); design: method as in PMID 30735632; settings: previous work; read-out: EC50 in activating NPYLR7 in vitro; cited from earlier work
Chain of Ae. aegypti NPYLR7 (U5N1H5 entry or part of it): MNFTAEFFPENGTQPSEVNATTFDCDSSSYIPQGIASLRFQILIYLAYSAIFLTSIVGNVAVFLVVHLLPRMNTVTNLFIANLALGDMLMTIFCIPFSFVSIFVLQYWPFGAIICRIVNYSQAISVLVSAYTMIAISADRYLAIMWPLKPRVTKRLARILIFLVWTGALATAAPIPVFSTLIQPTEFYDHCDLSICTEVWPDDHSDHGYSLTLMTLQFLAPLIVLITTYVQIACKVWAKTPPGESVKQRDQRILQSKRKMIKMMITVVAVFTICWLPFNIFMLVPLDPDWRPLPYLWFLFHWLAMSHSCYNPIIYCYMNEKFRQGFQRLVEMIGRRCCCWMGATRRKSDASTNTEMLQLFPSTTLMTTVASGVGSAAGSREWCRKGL

[2] = test system: Aedes aegypti (Orlando strain) females; design: method as in PMID 30735632; settings: previous work; cited from earlier work
[3] = test system: Aedes aegypti (Orlando strain) females; experiment: Glytube feeding: females feeding to repletion and weight per female (meal palatability); type: in vivo; settings: Supplemental Figure 1 Panel A; compounds of Fig 3; individual replicate values
Description: Groups of 60–150 females were placed in bucket cages with a diameter of 21.6 cm and height of 16.5 cm (VWR) and fasted with access to water for 24 h prior to feeding. Meals were delivered to females via Glytube membrane feeders as described previously. Meals consisted of 1.5 ml sheep blood (HemoStat Laboratories), saline (400 mM NaHCO3 + dih2O), or saline and test compound. Lyophilized compounds were stored at room temperature until use. High-concentration stocks (30 mM in 100% dimethyl sulfoxide [DMSO]) (Sigma-Aldrich) were stored at −20 °C and diluted in saline immediately prior to feeding. Once prepared, meals and glycerol heating elements were warmed in a 42 °C water bath for 15 min to provide warmth to attract mosquitos to feed. ATP (1 mM final concentration) and test compounds (1 μM final concentration) were added prior to placing the meal on top of the mesh on the cage containing female mosquitos. Females were allowed 15–20 min to feed to repletion. Abdominal engorgement was scored by eye and confirmed by weighing females to ensure full feeding (Data S1). […] Females were returned to their original cage with a diH2O wick for 48 h prior to behavioral testing. The lethality of each compound was measured by counting the number of dead females in each cage 24 h post-meal.
Supplementary file 13071_2024_6347_MOESM1_ESM.png: Supplementary Material 1: Figure 1. […] (A) Percent of females feeding to repletion and (B) weight per female after feeding on the indicated meal used for testing in Miniport olfactometer experiments in Figure 3B. (C) Percent of females feeding to repletion and (D) weight per female after feeding on the indicated meal used for testing in live host assays in Figure 4. Data are shown as mean with standard deviation. n = 2–22 replicate cages, 60–150 females/cage. Females were weighed in groups of five to ensure reliable readings. Kruskal–Wallis with Dunn’s multiple comparisons to saline-fed group, ns P > 0.01, * P < 0.01, *** P < 0.0001. (PNG 321 KB)

SMILES | Difference between medians: Actual (vs. saline) ([1]; fed 100 μM) | Difference between medians: Hodges-Lehmann (vs. saline) ([1]; fed 100 μM) | Median (percent freshly blood-fed) ([1]; fed 100 μM) | Significantly different (P < 0.05)? vs. saline ([1]; fed 100 μM) | effect on blood-feeding from a live host (in words) ([1]; fed at a dose of 100 μM) | EC50 (Ae. aegypti NPYLR7) | fed dose at which behaviorally active [2] | Difference between medians: Actual (vs. saline) ([1]; fed 1 μM) | Difference between medians: Hodges-Lehmann (vs. saline) ([1]; fed 1 μM) | Median (percent freshly blood-fed) ([1]; fed 1 μM) | Significantly different (P < 0.05)? vs. saline ([1]; fed 1 μM) | Percentage of females that freshly blood-fed on an anesthetized mouse ([1]; listed as TDI-04184) | effect on biting / blood-feeding from a live host (in words) [1] | % feeding (females feeding to repletion) [3] | Percentage of females that freshly blood-fed on an anesthetized mouse ([1]; listed as TDI-04186)
COc1ccc2c(C)nc(NC(=N)N)nc2c1 [TDI-012631, reference compound] | -26 | -24.68 | 53.00, n=17% | Yes | inhibited blood-feeding | 19.6 µM | > 30 µM |  |  |  |  |  |  |  | 
CNc1nc(NC(=N)N)nc2cc(OCc3ccccc3)c(OC)cc12 [TDI-014184] |  |  |  |  |  |  |  | -27.4 | -24 | 47.00, n=11% | Yes | 65% and 81% and 47% and 10% and 44% and 86% and 33% and 56% and 35% | reduced biting behavior | 76.92% | 
Cc1nc(NC(=N)N)nc2cc(N3CCc4ccccc4C3)ccc12 [TDI-014186] |  |  |  |  |  |  |  | -18.25 | -17 | 54.25, n=9% | Yes |  | effectively reduced biting | 56.22% | 31% and 62% and 70% and 67% and 36% and 53% and 65%
